The target in test [1] is T1, LTD4 in guinea pig ileum and trachea (Cavia porcellus, UniProt Q2NNR5).
T1 construct: from tissue; host or cells: isolated ileum and trachea of guinea pigs (male Hartley stated for the ileum test)
T1 sequence (Q2NNR5 1-340): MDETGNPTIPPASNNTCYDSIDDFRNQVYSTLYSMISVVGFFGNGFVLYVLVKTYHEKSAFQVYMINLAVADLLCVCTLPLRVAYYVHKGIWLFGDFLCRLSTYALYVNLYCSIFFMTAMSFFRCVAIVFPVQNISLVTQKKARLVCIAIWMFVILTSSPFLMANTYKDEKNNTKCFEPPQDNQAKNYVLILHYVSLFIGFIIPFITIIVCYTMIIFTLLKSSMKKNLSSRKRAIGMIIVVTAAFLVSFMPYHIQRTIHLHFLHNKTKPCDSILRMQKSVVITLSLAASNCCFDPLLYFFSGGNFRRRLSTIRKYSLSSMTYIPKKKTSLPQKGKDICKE
As to the kind of experiment: cumulative concentration-response curves to LTD4 in guinea pig ileum and trachea (KB by method of Furchgott). To be noted: negative log of the dissociation KB, 30 minute incubation, LTD4 agonist. The protocol:
(§1) Male, Hartley guinea pigs weighing 200-450 grams were killed by decapitation. A section of terminal ileum was removed, the lumen cleaned, and the tissue divided into 2.5 cm segments. The ilea were mounted in 10 ml tissue baths containing Krebs-bicarbonate solution of the following composition in mmoles/liter: KCl, 4.6; CaCl2 ·2H2 O, 1.2; KH2 PO4, 1.2; MgSO4 ·7H2 O, 1.2; NaCl, 118.2; NaHCO3, 24.8; and dextrose, 10.0. The bath fluid was maintained at 37° C. and aerated with 95 percent oxygen and 5 percent CO2. In addition, the buffer contained 1×10^-6 M atropine to reduce ileal spontaneous activity. Isometric measurements were made with a Grass FT03C force-displacement transducer and recorded on a Grass polygraph as change in grams of force. A passive force of 0.5 g. was applied to the tissues. After an appropriate equilibration period, single submaximal control responses to pure LTD4 were obtained. Following a five minute exposure of the ileum to an experimental drug, the control concentration of LTD4 was added to the tissue bath. The response of the ileum to LTD4 in the presence of the drug was compared to the response in the absence of the drug. Various degrees of LTD4 antagonism were obtained using 2-4 different concentrations of an experimental compound on a single ileum.
For some of the drugs in this series a more detailed analysis of LTD4 antagonism was made. In these experiments, cumulative concentration-response curves were obtained to LTD4 in guinea pig ileum and trachea. This was followed by a 30 minute incubation with various concentrations of the experimental drug. The concentration response curve to LTD4 was then repeated in the presence of an antagonist. Only one concentration of antagonist was used on a single tissue. KB values were calculated by the method of Furchgott [Ann. N.Y. Acad. Sci., 139, 553 (1967)] using the following equation. [formula]
Dose effect ratio refers to the concentration of agonist required to elicit 50 percent of the maximal response (ED50) in the presence of the antagonist divided by the ED50 in the absence of the antagonist. Calculations were performed with the aid of a computer and a digital plotter. The negative log of the dissociation KB ("pKB ") is given for some of the compounds in the table below.
(§2) Percent inhibition of LTD4 evoked ileal contractions

Test [2] deals with pressor response to leukotriene D4. The test is described as follows: decrease of LTD4 pressor response in pithed rats. Format: in vivo, Adult male Sprague-Dawley rats. The note with it: Rattus norvegicus, iv, 0.25 h, 15 minutes prior to leukotriene D4 challenge (10 μg/kg, i.v.); dose to decrease pressor response by 50%. How it is done:
A further measure of the final product's activity is their ability to decrease the pressor response in pithed rats that are challenged by LTD4. This activity is measured by the following standard procedure
Adult male Sprague-Dawley rats, weighting approximately 300-500 grams, are anesthetized with pentobarbital sodium (60 mg/kg, i.p.). The trachea is cannulated and the rats are ventilated with room air delivered from a rodent respirator (Harvard, model 680; tidal volume of 1 ml/100 grams body weight, 60 cycles/minute). Rats are pithed by passing a steel rod through the right orbit and down the entire length of the spinal column. The rod is left in position for the duration of the experiment. Pulsatile arterial blood pressure is measured from a cannulated carotid artery using a Stathamtransducer (P231D). Mean arterial blood pressure is calculated as diastolic pressure plus 1/3 pulse pressure. Drug solutions are administered i.v. through a catheter placed in a jugular vein. Arterial blood pressure is recorded on a multichannel oscillograph (Beckman, model R511A).
Groups of pithed rats, usually 4-6/group, are pretreated i.v. with a dose of test compound or vehicle (control experiments) 15 minutes prior to leukotriene D4 challenge (10 μg/kg, i.v.). Usually 3-4 doses of the test compound are evaluated in a given study. Blood pressure responses to leukotriene D4 in control and drug-treated pithed rats are then compared and an ED50 dose of antagonist is estimated. ED50 (95% confidence interval) is the calculated dose of antagonist (mg/kg, i.v.) required to decrease the pressor response to leukotriene D4 by 50%.
The ED50 values of selected final products of Formula I are set forth below in Table 2.

Test [3] concerns LTD4 evoked ileal contractions. The test is described as follows: LTD4 antagonism: inhibition of LTD4 evoked contractions of isolated guinea pig ileum. The note with it: 5 min exposure to drug, 50% inhibition of LTD4 responses, 37° C. On the set-up: species or system Male, Hartley guinea pigs. How it is done: as §1, §2

A word on the pKB: it is −log10 of the KB, conventionally taken in molar units. A low value points to a high KB. Broadly, the ED50 is the midpoint of the dose-response relation. Lower therefore signals greater potency.

With `CCCc1c(OCCCCc2nnn(Cc3ccc(C(=O)O)cc3)n2)ccc(C(C)=O)c1O` [Example 31, 5-[4-(4-Acetyl-3-hydroxy-2-propylphenoxy)butyl]-2H-tetrazole-2-(α-methylene-p-benzoic acid)], in test [1], the negative logarithm of the KB (pKB) was found to be 7.190. In test [2], this compound showed an ED50 of 6.5 mg/kg. In addition, the “-log IC50” value in test [3] turned out to be 7.75.

With `CCCc1c(OCCCCc2nnn(Cc3ccc(C(=O)O)cc3O)n2)ccc(C(C)=O)c1O` [Example 57, 5-[4-(4-Acetyl-3-hydroxy-2-(n-propyl)phenoxy)butyl]-2H-tetrazole-2-[4-(methylene)3-hydroxybenzoic acid]], in test [1], the pKB is 7.06. For the same compound, in test [2], the ED50 was 19.8 mg/kg.

The values above are taken from patent publication US4820723A, “Disubstituted tetrazole leukotriene antagonists and methods for their use thereas” (Eli Lilly and Company, priority 1987, dated 1989).
